Laboratory results taken from the supplement of paper PMC10307832.

Assays:
Test in all cases: relative viability (nuclei count vs DMSO), 5 days (fraction); higher = more cells survive
[1] = compound: C[C@@]1(C(=O)Nc2ccc(F)nc2)CCCN1c1nc(Nc2cc(C3CC3)n[nH]2)c2cccn2n1 + Cc1nc(Nc2ncc(C(=O)Nc3c(C)cccc3Cl)s2)cc(N2CCN(CCO)CC2)n1 [Dasatinib] (partner 0.075 µM)
How it was run: (§1)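 Lung cancer cell lines in 1536-well plates were dosed by pin tool the day after seeding, either with one drug alone or with a fixed anchor-drug dose plus five library-drug doses (not always all listed) in √10 steps. After 5 days, cells were fixed and their nuclei stained in one step (final 0.05% Triton X-100, 1% formaldehyde, 1 ug/ml Hoechst), then counted on 4× images. Relative viability is the nuclei count in treated wells divided by that in vehicle wells. Values are medians of duplicate plates.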

Motesanib + Alpelisib = compound: CC1(C)CNc2cc(NC(=O)c3cccnc3NCc3ccncc3)ccc21 [Motesanib] + Cc1nc(NC(=O)N2CCC[C@H]2C(N)=O)sc1-c1ccnc(C(C)(C)C(F)(F)F)c1 [Alpelisib] (partner 2 µM)
How it was run: as §1

[2] = compound: C[C@@]1(C(=O)Nc2ccc(F)nc2)CCCN1c1nc(Nc2cc(C3CC3)n[nH]2)c2cccn2n1 + C[C@]1(O)C[C@@H](c2nc(-c3ccc4ccc(-c5ccccc5)nc4c3)c3c(N)nccn32)C1 [Linsitinib] (partner 1 µM)
How it was run: as §1

Motesanib + Vorinostat = compound: CC1(C)CNc2cc(NC(=O)c3cccnc3NCc3ccncc3)ccc21 [Motesanib] + O=C(CCCCCCC(=O)Nc1ccccc1)NO [Vorinostat] (partner 1 µM)
How it was run: as §1

In the case of UMC-11, the relative viability ([1]; first compound 0.04 µM) is reported as 0.478, the relative viability ([1]; first compound 0.1265 µM) is reported as 0.471 and the relative viability ([1]; first compound 0.4 µM) is reported as 0.399. For the same cell line, the relative viability ([1]; first compound 1.265 µM) was 0.278, the relative viability (Motesanib + Alpelisib; first compound 0.01 µM) was 0.923 and the relative viability (Motesanib + Alpelisib; first compound 0.03162 µM) was 0.973. The relative viability (Motesanib + Alpelisib; first compound 0.1 µM) was 0.981, the relative viability (Motesanib + Alpelisib; first compound 0.3162 µM) was 1.03 and the relative viability (Motesanib + Alpelisib; first compound 1 µM) was 1.03. The relative viability ([2]; first compound 0.04 µM) was 1.08, the relative viability ([2]; first compound 0.1265 µM) was 0.985 and the relative viability ([2]; first compound 0.4 µM) was 0.957. For the same cell line, the relative viability ([2]; first compound 1.265 µM) was 1.05, the relative viability (Motesanib + Vorinostat; first compound 0.01 µM) was 0.44 and the relative viability (Motesanib + Vorinostat; first compound 0.03162 µM) was 0.438. The relative viability (Motesanib + Vorinostat; first compound 0.1 µM) was 0.345, the relative viability (Motesanib + Vorinostat; first compound 0.3162 µM) was 0.426 and the relative viability (Motesanib + Vorinostat; first compound 1 µM) was 0.476.
